Format in all cases: biochemical
In one test the target is T1, aggrecanase-1 (Homo sapiens, UniProt O75173).
T1 sequence (O75173 213-837): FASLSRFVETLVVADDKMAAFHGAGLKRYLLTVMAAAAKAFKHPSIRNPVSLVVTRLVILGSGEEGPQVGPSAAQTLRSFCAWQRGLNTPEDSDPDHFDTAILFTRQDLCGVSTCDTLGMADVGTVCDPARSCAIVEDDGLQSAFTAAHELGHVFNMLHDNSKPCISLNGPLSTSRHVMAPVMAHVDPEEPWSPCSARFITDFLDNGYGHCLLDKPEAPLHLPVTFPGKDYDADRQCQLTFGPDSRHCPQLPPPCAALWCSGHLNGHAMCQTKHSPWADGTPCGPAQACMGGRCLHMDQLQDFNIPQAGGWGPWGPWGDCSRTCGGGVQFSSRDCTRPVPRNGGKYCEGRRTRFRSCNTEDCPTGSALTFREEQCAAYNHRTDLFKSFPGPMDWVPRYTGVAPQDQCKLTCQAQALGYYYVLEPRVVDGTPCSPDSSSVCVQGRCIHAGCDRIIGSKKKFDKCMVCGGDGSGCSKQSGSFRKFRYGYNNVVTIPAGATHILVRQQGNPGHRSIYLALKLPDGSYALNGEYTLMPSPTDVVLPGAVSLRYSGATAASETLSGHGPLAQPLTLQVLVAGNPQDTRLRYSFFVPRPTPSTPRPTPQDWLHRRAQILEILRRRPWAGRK
Nature of the test: Aggrecanase-1 inhibitory action (Particle Assay, GAG release from aggrecan-containing polyacrylamide particles). Conditions: Experimental Example 1; read-out: IC50 AG1. In short, it runs like this:
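Enzyme and compound incubated with aggrecan-containing polyacrylamide particles in Tris-HCl buffer at 37° C for 15 h. Released GAG in supernatant measured with 1,9-dimethylmethylene blue at 595 nm against chondroitin sulfate standard; % inhibition from enzyme-free and inhibitor-free wells, reported as TC50 (μM).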

The next test has as its target T2, MMP-1 (Homo sapiens, UniProt P03956).
T2 sequence (P03956 100-469): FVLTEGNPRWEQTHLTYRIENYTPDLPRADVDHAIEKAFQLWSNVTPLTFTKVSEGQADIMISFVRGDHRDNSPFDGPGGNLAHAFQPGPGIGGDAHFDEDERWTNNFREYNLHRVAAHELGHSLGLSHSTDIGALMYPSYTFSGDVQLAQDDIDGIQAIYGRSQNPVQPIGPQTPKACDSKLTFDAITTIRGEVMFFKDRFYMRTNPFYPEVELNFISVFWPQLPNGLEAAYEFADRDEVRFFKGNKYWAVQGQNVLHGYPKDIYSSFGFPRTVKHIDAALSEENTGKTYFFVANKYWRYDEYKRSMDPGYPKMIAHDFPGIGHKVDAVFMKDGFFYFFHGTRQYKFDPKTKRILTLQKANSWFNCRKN
The test is described as follows: MMP-1 inhibitory action (Type I collagen Activity Measurement kit, FITC-labeled collagen type I). Conditions: Experimental Example 2; read-out: IC50 MMP1.

Another test deals with T3, Recombinant Human MMP-13 (Homo sapiens, UniProt P45452).
T3 construct: purchased R&D systems 511-MM
Nature of the test: MMP-13 inhibitory activity (MMP-13 specific fluorescent substrate with quencher). The following applies: Experimental Example 3; read-out: IC50 MMP13. In short, it runs like this: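 Recombinant human MMP-13 with test compound, reaction started with quenched fluorogenic peptide 7-MCA-Pro-CHA-Gly-NVal-His-Ala-DPA in Tris-HCl buffer, 1 h at 25 °C, stopped with acetic acid. Fluorescence at Ex 325/Em 405 nm; % inhibition versus enzyme-free and inhibitor-free wells, reported as IC50 (μM).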

The structures appear in SMILES notation.

34 compounds from US20080261994A1, “CYCLOPROPANE COMPOUNDS AND PHARMACEUTICAL USE THEREOF” (Japan Tobacco Inc., priority 2003, published 2008) can be followed below.

Usually IC50 stands for the concentration that inhibits the measured activity by half.

For the compound `CC(C)CCN1CCN(S(=O)(=O)N[C@@]2(C(=O)O)C[C@@H]2c2ccccc2)CC1` [Example 2-511], the IC50 at aggrecanase-1, on MMP-1 and at Recombinant Human MMP-13 was ≥ 1000 nM throughout.

In the case of `CCNC(=O)N1CCN(S(=O)(=O)N[C@@]2(C(=O)O)C[C@@H]2c2ccccc2)CC1` [Example 2-512], the IC50 on aggrecanase-1, at MMP-1 and at Recombinant Human MMP-13 was ≥ 1000 nM each time.

For the compound `CC(C)CC(=O)N1CCN(S(=O)(=O)N[C@@]2(C(=O)O)C[C@@H]2c2ccccc2)CC1` [Example 2-513], the IC50 at aggrecanase-1, at MMP-1 and at Recombinant Human MMP-13 was ≥ 1000 nM each time.

With `CC1[C@H](c2ccccc2)[C@]1(NS(=O)(=O)c1ccc(-n2ccc(C(F)(F)F)n2)s1)C(=O)O` (stereo partly drawn) [Example 2-514], the values for the IC50 at aggrecanase-1, at MMP-1 and on Recombinant Human MMP-13 were < 1000 nM, ≥ 1000 nM and < 1000 nM, respectively.

On to `CN(c1ccccc1)c1ccc(S(=O)(=O)N[C@@]2(C(=O)O)C[C@]2(C)c2ccccc2)s1` [Example 2-515], for which the IC50 on aggrecanase-1, on MMP-1 and on Recombinant Human MMP-13 was ≥ 1000 nM throughout.

As to `COc1cc(-c2ccc(S(=O)(=O)N[C@@]3(C(=O)O)C[C@]3(C)c3ccccc3)s2)ccc1Cl` [Example 2-516], the IC50 was < 1000 nM at aggrecanase-1, ≥ 1000 nM at MMP-1 and < 1000 nM at Recombinant Human MMP-13.

In the case of `CC1[C@H](c2ccccc2)[C@]1(NS(=O)(=O)c1ccc(-c2ccc3nonc3c2)s1)C(=O)O` (stereo partly drawn) [Example 2-517], the figures for the IC50 on aggrecanase-1, on MMP-1 and on Recombinant Human MMP-13 were < 100 nM, ≥ 1000 nM and < 1000 nM, respectively.

`C[C@]1(c2ccccc2)C[C@@]1(NS(=O)(=O)c1cn2cc(-c3ccccc3)nc2s1)C(=O)O` [Example 2-518]: the results for the IC50 at aggrecanase-1, on MMP-1 and at Recombinant Human MMP-13 were < 1000 nM, < 1000 nM and < 100 nM, respectively.

For `COCc1cn2cc(S(=O)(=O)N[C@@]3(C(=O)O)C[C@]3(C)c3ccccc3)sc2n1` [Example 2-519], the IC50 at aggrecanase-1, on MMP-1 and at Recombinant Human MMP-13 was ≥ 1000 nM in each case.

For the compound `CC1[C@H](c2ccccc2)[C@]1(NS(=O)(=O)c1cn2cc(Cn3cc(Cl)cn3)nc2s1)C(=O)O` (stereo partly drawn) [Example 2-520], the 50% inhibitory concentration (IC50) at aggrecanase-1, at MMP-1 and on Recombinant Human MMP-13 was ≥ 1000 nM throughout.

For `CCOC(=O)c1cnn(-c2ccc(S(=O)(=O)N[C@@]3(C(=O)O)C(C)[C@@H]3c3ccccc3)s2)c1` (stereo partly drawn) [Example 2-521], the figures for the IC50 on aggrecanase-1, on MMP-1 and at Recombinant Human MMP-13 were < 1000 nM, ≥ 1000 nM and < 100 nM, respectively.

For `CC1[C@H](c2ccccc2)[C@]1(NS(=O)(=O)c1ccc(-n2cc(C(=O)O)cn2)s1)C(=O)O` (stereo partly drawn) [Example 2-522], the figures for the IC50 on aggrecanase-1, at MMP-1 and on Recombinant Human MMP-13 were ≥ 1000 nM, ≥ 1000 nM and < 100 nM, respectively.

As for `CC1[C@H](c2ccccc2)[C@]1(NS(=O)(=O)c1ccc(-n2cc(C(C)(C)O)cn2)s1)C(=O)O` (stereo partly drawn) [Example 2-523], the IC50 on aggrecanase-1 is < 1000 nM; at MMP-1 it was < 1000 nM; at Recombinant Human MMP-13, < 100 nM.

In the case of `CC1[C@H](c2ccccc2)[C@]1(NS(=O)(=O)c1ccc(-n2cc(S(C)(=O)=O)cn2)s1)C(=O)O` (stereo partly drawn) [Example 2-524], the 50% inhibitory concentration (IC50) at aggrecanase-1, on MMP-1 and at Recombinant Human MMP-13 was < 100 nM each time.

Consider `CC1C(c2ccccc2)C1(NS(=O)(=O)c1ccc(-c2cccc(CO)c2)s1)C(=O)O` (stereo not drawn) [Example 2-525], for which the IC50 at aggrecanase-1, on MMP-1 and on Recombinant Human MMP-13 was < 100 nM throughout.

Take `C[C@]1(c2ccccc2)C[C@@]1(NS(=O)(=O)c1ccc(-c2ccncc2)s1)C(=O)O` [Example 2-526]: the IC50 at aggrecanase-1, at MMP-1 and on Recombinant Human MMP-13 was ≥ 1000 nM in each case.

Take `C[C@]1(c2ccccc2)C[C@@]1(NS(=O)(=O)c1ccc(-c2cccnc2)s1)C(=O)O` [Example 2-527]: the IC50 on aggrecanase-1, at MMP-1 and at Recombinant Human MMP-13 was ≥ 1000 nM throughout.

Regarding `COc1cc2c(cc1OC)CN(S(=O)(=O)N[C@@]1(C(=O)O)C(C)[C@@H]1c1ccccc1)CC2` (stereo partly drawn) [Example 2-528], the IC50 on aggrecanase-1, at MMP-1 and at Recombinant Human MMP-13 was ≥ 1000 nM each time.

For the compound `CC1[C@H](c2ccccc2)[C@]1(NS(=O)(=O)N1CCN(C(=O)NCc2ccccc2)CC1)C(=O)O` (stereo partly drawn) [Example 2-529], the half-maximal inhibitory concentration (IC50) on aggrecanase-1, at MMP-1 and on Recombinant Human MMP-13 was ≥ 1000 nM in each case.

On to `CC(C)CCN1CCN(S(=O)(=O)N[C@@]2(C(=O)O)C(C)[C@@H]2c2ccccc2)CC1` (stereo partly drawn) [Example 2-530], for which the concentration for half-maximal inhibition (IC50) at aggrecanase-1, on MMP-1 and at Recombinant Human MMP-13 was ≥ 1000 nM in each case.

For the compound `CC1[C@H](c2ccccc2)[C@]1(NS(=O)(=O)N1CCN(CCc2ccccc2)CC1)C(=O)O` (stereo partly drawn) [Example 2-531], the IC50 at aggrecanase-1, on MMP-1 and at Recombinant Human MMP-13 was ≥ 1000 nM in each case.

As to `CC1[C@H](c2ccccc2)[C@]1(NS(=O)(=O)N1CCN(C(=O)OCc2ccccc2)CC1)C(=O)O` (stereo partly drawn) [Example 2-532], the IC50 at aggrecanase-1, on MMP-1 and at Recombinant Human MMP-13 was ≥ 1000 nM each time.

For `CC1[C@H](c2ccccc2)[C@]1(NS(=O)(=O)N1CCN(c2ccncc2)CC1)C(=O)O` (stereo partly drawn) [Example 2-533], the 50% inhibitory concentration (IC50) at aggrecanase-1, at MMP-1 and at Recombinant Human MMP-13 was ≥ 1000 nM throughout.

Turning to `COCCN1CCN(S(=O)(=O)N[C@@]2(C(=O)O)C(C)[C@@H]2c2ccccc2)CC1` (stereo partly drawn) [Example 2-534], the half-maximal inhibitory concentration (IC50) at aggrecanase-1, at MMP-1 and on Recombinant Human MMP-13 was ≥ 1000 nM each time.

For the compound `CC1[C@H](c2ccccc2)[C@]1(NS(=O)(=O)N1CCc2ccccc2C1)C(=O)O` (stereo partly drawn) [Example 2-535], the IC50 on aggrecanase-1, at MMP-1 and on Recombinant Human MMP-13 was ≥ 1000 nM in each case.

Regarding `COc1ccc(CN2CCN(S(=O)(=O)N[C@@]3(C(=O)O)C(C)[C@@H]3c3ccccc3)CC2)cc1` (stereo partly drawn) [Example 2-536], the IC50 at aggrecanase-1, at MMP-1 and on Recombinant Human MMP-13 was ≥ 1000 nM in each case.

In the case of `CC1[C@H](c2ccccc2)[C@]1(NS(=O)(=O)N1CCN(C/C=C/c2ccccc2)CC1)C(=O)O` (stereo partly drawn) [Example 2-537], the IC50 on aggrecanase-1, at MMP-1 and at Recombinant Human MMP-13 was ≥ 1000 nM each time.

Consider `CC1[C@H](c2ccccc2)[C@]1(NS(=O)(=O)N1Cc2ccc(Cl)cc2C1)C(=O)O` (stereo partly drawn) [Example 2-538], for which the IC50 on aggrecanase-1 was ≥ 1000 nM; on MMP-1, ≥ 1000 nM; at Recombinant Human MMP-13, < 1000 nM.

Consider `COCC1C(c2ccccc2)C1(NS(=O)(=O)c1ccc(-c2cc(C(F)(F)F)on2)s1)C(=O)O` (stereo not drawn) [Example 2-539], for which the IC50 is < 100 nM on aggrecanase-1, < 1000 nM on MMP-1 and < 100 nM on Recombinant Human MMP-13.

As to `CC1C(c2ccccc2)C1(NS(=O)(=O)c1ccc(-c2cccc(CN3CCOCC3)c2)s1)C(=O)O` (stereo not drawn) [Example 2-540], the IC50 was ≥ 1000 nM on aggrecanase-1, ≥ 1000 nM on MMP-1 and < 1000 nM at Recombinant Human MMP-13.

With `CC1C(c2ccccc2)C1(NS(=O)(=O)c1ccc(CCc2ccccc2)s1)C(=O)O` (stereo not drawn) [Example 2-541], the concentration for half-maximal inhibition (IC50) at aggrecanase-1, on MMP-1 and on Recombinant Human MMP-13 was ≥ 1000 nM in each case.

With `CC1[C@H](c2ccccc2)[C@]1(NS(=O)(=O)c1ccc(-n2cccn2)s1)C(=O)O` (stereo partly drawn) [Example 2-542], the values for the half-inhibitory concentration (IC50) at aggrecanase-1, on MMP-1 and on Recombinant Human MMP-13 were < 1000 nM, ≥ 1000 nM and < 100 nM, respectively.

In the case of `CC1[C@H](c2ccccc2)[C@]1(NS(=O)(=O)c1ccc(-n2cc(I)cn2)s1)C(=O)O` (stereo partly drawn) [Example 2-543], the 50% inhibitory concentration (IC50) on aggrecanase-1, at MMP-1 and at Recombinant Human MMP-13 was < 100 nM throughout.

On to `C[C@]1(c2ccccc2)C[C@@]1(NS(=O)(=O)c1ccc(-c2ccc3c(c2)OC(F)(F)O3)s1)C(=O)O` [Example 2-544], for which the IC50 on aggrecanase-1 was < 1000 nM; on MMP-1, ≥ 1000 nM; on Recombinant Human MMP-13, < 1000 nM.
